From patent US20100190849A1, “Novel Clerodanes and Methods for Repelling Arthropods” (priority 2006, published 2010)

System: Aedes aegypti
Assay: Total mosquito toxic knockdown after K & D module exposure (Experiment 8)
Format: in vivo
Settings: Exp. 8, 25 nmol/cm^2 cloth; for Total Knock down 6 min: dead mosquitoes 6 min post-treatment exposure; for Total knock down 1 hr: dead mosquitoes 1 hr post-treatment exposure; for Total knock down 24 hr: dead mosquitoes 24 hr post-treatment exposure
From the text: Plant extracts, fractions, or isolated pure plant derived compounds in 95% ethanol solution were each randomly applied to six-4×5 cm areas of organdy cloth and positioned over the membrane-covered blood. A replicate consisted of six treatments: four test chemicals or extract fractions, 95% ethanol treated cloth as control and unfractionated plant extract or a standard repellent compound, (1S, 2′S)-2-methylpiperidinyl-3-cyclohexen-1-carboxamide (SS220) at 25 nmol/cm^2 cloth. The 25 nmol SS220/cm^2 cloth dose was used as a standard, because it was known from human volunteer and in vitro assays to consistently suppress mosquito biting by 80% or more compared to controls in replicated assays (Klun, J. A., et al., Journal of the American Mosquito Control Association, 21: 64-70 (2005)). […] Routinely, a six-celled K & D module containing five mosquitoes/cell was positioned over cloth treatments covering the six blood-membrane wells, and trap doors of the K&D modules were opened to expose the treatments to the sets of mosquitoes. After a 3 minute exposure, the number of mosquitoes biting through cloth treatments in each cell was recorded and mosquitoes were prodded back into the cells. In Experiment 8, we retained all mosquitoes in their respective K&D module cells, each fitted with a water-moist piece of cotton, and observed the mosquitoes for total mosquito toxic knockdown at 6 min, 1 hr, and 24 hr post-treatment exposure. Experiments were replicated 12, 18, 32, or 56 times. Thus, 60, 90, 160. or 280 mosquitoes were tested against each treatment depending on the experiment, and the proportion of mosquitoes not biting for each treatment was calculated. For each experiment, conducted in different time periods, logistic regression was used to make two sets of one degree-of-freedom contrasts (t-tests): treatments vs. control and treatments vs. SS220 for anti-biting activity within each experiment. The level of significance was set at P=0.05. In all, we conducted 8 biological experiments, and all experiments used Ae. aegypti as the test mosquito with exception of Experiment 7 which used An. stephensi.
Experiment 8: This experiment (12 replicates) compared the antibiting activities of a mixture (25 nmol/cm^2 cloth) of 11.5% callicarpenal, 47.1% intermedeol, and 41.4% spathulenol. The percentage composition of the mixture was a normalized percentage of active components in C. japonica essential oil based upon GC-MS analysis total ion Area % analysis based on largest peaks. Other treatments in the experiment were SS220, callicarpenal, intermedeol, and spathulenol each at 25 nmol/cm^2 cloth versus control. In addition to measurement of anti-biting activity, the number of dead mosquitoes observed at three time intervals were recorded for the six treatments.

Row | Structure (SMILES) | Total Knock down 6 min | Total knock down 1 hr | Total knock down 24 hr
1 | C=C(C)C1CCC2(C)CCCC(C)(O)C2C1 [intermedeol, (4S,5S,7R,10S)-eudesm-11-en-4-ol] | 1 | 1 | 2
2 | CC1=CCC[C@@H]2[C@@](C)(CC=O)[C@H](C)CC[C@@]12C [callicarpenal, 13,14,15,16-tetranorclerod-3-en-12-al] | 0 | 1 | 5
